The source of these data is patent US20150328322A1, “DRUG DELIVERY VEHICLES” (priority 2012, published 2015).

Data set [1] addresses T1, MLD capsid II (Escherichia phage T7, UniProt P03728+P19726).
T1 construct: These latter capsid shells are produced during DNA packaging
Nature of the data set: AUC-BD in a Nycodenz density gradient after pre-centrifugation incubation. Type of data set: physicochemical. As for the experimental part:
By use of recent technical advances, both densities and their pressure dependence have been explored by use of analytical buoyant density equilibrium sedimentation (AUC-BD) performed with a Nycodenz density gradient and a fluorescence detector. The data were analyzed with the UltraScan-III software (Demeler et al., (2012) UltraScan-III, a comprehensive analysis software for analytical ultracentrifugation experiments. The University of Texas Health Science Center at San Antonio, Dept. of Biochemistry). […] The sources of the peak sharpness are small diffusion coefficient and uniform density of phage and phage capsids. […] Fluorescence detection provides picomolar sensitivity and several orders of magnitude of dynamic range. AUC-BD is also efficient in that (1) no gradient fractionation and analysis of separate fractions is needed, (2) sample concentrations in the picomolar range are used, over 2 orders of magnitude less than what is needed for other procedures of detection, (3) 14 samples can be simultaneously run and (4) pressure and temperature dependences are determined with one set of samples by progressively changing the speed and temperature of centrifugation.
The details of the AUC-BD are the following. […] If the particle is uniform in density and its diffusion is low, then a sharp peak of fluorescence will form. […]

Data set [2] concerns the target T1, MLD capsid II. Put plainly: Diffusion-driven permeation of dyes into internal cavity of MLD capsid II. The format is physicochemical. To be noted: entry through the gp8 portal. The text has this:
MLD Capsid II. […] Thus, bis-ANS, ethidium, and presumably other similarly sized compounds enter MLD capsid II through the gp8 portal (see FIG. 1a).

The next data set addresses T2, MHD capsid II (Escherichia phage T7, UniProt P19726).
T2 construct: These latter capsid shells are produced during DNA packaging; made in house; host or cells: phage-infected E. coli (inferred)
Put plainly: Fluorescence (I) vs. time binding of bis-ANS to connector-free capsid. The format is physicochemical. The conditions noted are these: capsid II particle without connector. The text has this: For measuring the rate of loading of a compound in MLD capsid II, an alternative to AUC-BD is usually needed for reasons of efficiency of time and cost. Total fluorescence (/) has been used to determine the rate of loading for bis-ANS, because bis-ANS undergoes fluorescence enhancement when it binds to hydrophobic areas of proteins, including several internal T7 proteins (gps8, gps15, gps16)—the T7 proteins bound were identified by ultraviolet light-induced, covalent cross-linking to bis-ANS after binding. The value of I vs. time at 25° C. is plotted in FIG. 5 (adapted from Khan et al., Biophys. J. 1992, 63:1286-1292), during incubation of bis-ANS with T7 MLD capsid II and also the mature phage T7 and a T7 deletion mutant, C5-LG3. Binding to the exterior of the capsid was so rapid that it was complete before the first measurement. […] Thus, the loading rate is simply observed by measuring I vs. time and subtracting the initial signal. […] MLD capsid II-bound bis-ANS fluorescence is quenched by incubation with ethidium cation.

Another data set addresses T3, T7 MLD capsid II (Escherichia phage T7, UniProt P03728+P19726).
T3 construct: These latter capsid shells are produced during DNA packaging
The conditions noted are these: 25° C.; FIG. 5 adapted from Khan et al. 1992; cited from earlier work.

Data set [3] deals with T1, MLD capsid II. Put plainly: Buoyant density after incubation with sodium iothalamate. The format is physicochemical. To be noted: 25° C.; loads, but very slowly. The text has this:
Assays for Loading. To assay for diffusion-driven loading of a compound in the cavity of MLD capsid II, the most direct method is to perform buoyant density equilibrium centrifugation in a non-ionic density gradient of either Metrizamide (mw=789) or the closely related compound, Nycodenz (mw=821). If a compound enters MLD capsid II, the density changes after loading. Most dyes and drugs would, if loaded, cause the density of MLD capsid II to increase. The reason is that most dyes and drugs are denser than water and a loaded dye or drug molecule replaces internal MLD capsid II water. The exceptionally high hydration of MLD capsid II causes the density of MLD capsid II to be extremely low, typically between 1.08 and 1.12 g/ml, decreasing with increasing centrifugation speed, i.e., with increasing pressure (unpublished observations of the laboratories of Borries Demeler and Philip Serwer).
As the temperature decreases, the loading rate is expected to decrease, eventually to zero at a critical temperature. The critical temperature is expected to decrease as the molecular weight of the compound loaded decreases. The borderline for loading MLD capsid II at 25° C. is somewhat higher than 612, based on the fact that iothalamate anion (mw =612) loads, but very slowly (>19 hours), as determined by the buoyant density after incubation with sodium iothalamate. […]

T1 sequence (P03728 whole entry): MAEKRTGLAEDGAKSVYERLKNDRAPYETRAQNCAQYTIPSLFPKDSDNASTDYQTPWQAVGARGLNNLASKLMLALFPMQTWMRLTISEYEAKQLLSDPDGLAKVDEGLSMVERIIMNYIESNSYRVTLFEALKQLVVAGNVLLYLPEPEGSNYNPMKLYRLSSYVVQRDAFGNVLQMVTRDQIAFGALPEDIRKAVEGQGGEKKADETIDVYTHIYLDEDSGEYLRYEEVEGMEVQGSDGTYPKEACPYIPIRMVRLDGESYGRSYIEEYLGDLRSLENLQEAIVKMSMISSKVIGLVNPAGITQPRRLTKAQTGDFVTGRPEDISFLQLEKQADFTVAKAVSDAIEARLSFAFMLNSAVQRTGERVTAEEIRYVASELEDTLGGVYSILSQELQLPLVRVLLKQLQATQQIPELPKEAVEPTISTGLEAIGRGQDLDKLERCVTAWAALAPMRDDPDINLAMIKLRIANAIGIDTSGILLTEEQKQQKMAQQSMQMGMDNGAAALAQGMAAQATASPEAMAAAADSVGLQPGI
T1 sequence (P19726 whole entry): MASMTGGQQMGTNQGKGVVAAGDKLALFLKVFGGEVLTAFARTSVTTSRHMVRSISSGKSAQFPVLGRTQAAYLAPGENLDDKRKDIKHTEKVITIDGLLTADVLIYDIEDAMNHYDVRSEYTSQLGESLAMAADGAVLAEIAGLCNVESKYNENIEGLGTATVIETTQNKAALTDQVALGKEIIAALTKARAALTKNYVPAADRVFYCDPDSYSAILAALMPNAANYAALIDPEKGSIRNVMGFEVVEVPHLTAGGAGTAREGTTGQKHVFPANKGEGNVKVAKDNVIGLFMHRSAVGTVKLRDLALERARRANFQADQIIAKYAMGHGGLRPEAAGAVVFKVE
T3 sequence (P19726 whole entry): as above
T3 sequence (P03728 whole entry): as the sequence (P03728 whole entry) above
T2 sequence (P19726 whole entry): as the sequence (P19726 whole entry) above

Turning to `CC(=O)N(CC(O)CO)c1c(I)c(C(=O)NCC(O)CO)c(I)c(C(=O)NCC(O)CO)c1I` (centres unmarked) [Nycodenz], the “entry into MLD capsid II” value is “does enter” on MLD capsid II [1] (pre-centrifugation incubation at 61° C. and 68° C., conversion to high-density particle, shell intact); “does not enter MLD capsid II” at MLD capsid II [1] (pre-centrifugation incubation at temperatures as high as 54° C.).

As to `CC(=O)Nc1c(I)c(C(=O)N[C@H]2C(O)O[C@H](CO)[C@@H](O)[C@@H]2O)c(I)c(N(C)C(C)=O)c1I` (some centres unmarked) [Metrizamide], the “diffusion into the internal cavity of MLD capsid II” value (from here on “diffusion into the internal cavity”) on MLD capsid II [2] is “never been observed to detectably diffuse into MLD capsid II”.

On to `O=S(=O)(O)c1cccc2c(-c3ccc(Nc4ccccc4)c4c(S(=O)(=O)O)cccc34)ccc(Nc3ccccc3)c12` [bis-ANS, 4,4′-dianilino-1,1′-binaphthyl-5,5′-disulfonic acid], for which the “diffusion into the internal cavity” value at MLD capsid II [2] was “diffuse into the internal cavity of MLD capsid II (over hours)”. For the same compound, on MHD capsid II, the bis-ANS binding kinetics result is reported as “Only rapid (effectively instantaneous) binding”. Besides, the “time of bis-ANS binding to the interior (loading)” value at T7 MLD capsid II is “several hours”.

As for `CC[n+]1c(-c2ccccc2)c2cc(N)ccc2c2ccc(N)cc21` [ethidium], the “diffusion into the internal cavity” value at MLD capsid II [2] is listed as “diffuse into the internal cavity of MLD capsid II (over hours)”.

With `CNC(=O)c1c(I)c(NC(C)=O)c(I)c(C(=O)O)c1I` [iothalamate], the loading time at MLD capsid II [3] was over 19 h.
